For one experiment, the target named is T1, MMP9 (Rattus norvegicus, UniProt P50282).
T1 construct: Pro and active MMP9 were abundantly present in ankles of SCW-induced vehicle-treated rats; from tissue; host or cells: ankle (tibia-tarsus joint) homogenates of female Lewis rats
Briefly: Pro and active MMP9 in ankles of rats with SCW-induced arthritis by Western blot. Type of experiment: in vivo. Particulars: Day 26, four hours after AM dose, mAb-L51/82, FIG. 3A. The procedure: Hind-limbs were skinned, severed just above the tibia-tarsus joint and below the metatarsals, and the tibia-tarsus joints (ankles) were weighed, snap frozen and pulverized on dry ice using a hammer and anvil. The pulverized tissue was suspended in 3 volumes (w:v) of ice-cold homogenization buffer containing 50 mM Tris pH 7.5, 150 mM NaCl, 5 mM EDTA, 1% Triton X100, 0.05% Brij 30, 10% dimethylsulfoxide and Complete EDTA-free Protease Inhibitor Cocktail (Roche Diagnostics). The suspended tissue was homogenized sequentially with a Kinematica AG Polytron and a Dounce homogenizer. Homogenates were centrifuged at 16,000×g for 10 min at 4° C. and the soluble fractions were saved. Dimethylsulfoxide was removed from a portion of each soluble fraction using PD MiniTrap™ G-25 desalting columns (GE Healthcare). Homogenates (0.25 mL), free of DMSO, were diluted with an equal volume of binding buffer (i.e., homogenization buffer without dimethylsufoxide) and adjusted to contain 50 μL of a 50% slurry of gelatin-conjugated sepharose. Following 2 hours of rotation at 4° C. the beads were washed twice in binding buffer and eluted in 100 μL 2×-reducing Laemmli buffer with heating to 95° C. for 5 minutes. […]
On the technique in general: In western blotting, separated proteins are transferred to a membrane and probed.

The target of experiment [1] is proMMP13(1-268) (SEQ ID NO:7) (Homo sapiens, UniProt P45452). Briefly: ThermoFluor binding assay with proMMP13(1-268). More on the design: 6xHis (C); made in house. To be noted: pH 7.0. In a few lines:
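Thermal shift binding with 3.5 μM protein and 25 μM 1,8-ANS in 50 mM HEPES pH 7.0, 100 mM NaCl, 0.001% Tween-20, 2.5 mM MgCl2, 300 μM CaCl2. Samples were heated 40 to 90 °C at 1 °C/min, fluorescence read at 500 nm. Tm shifts across an 11-point DMSO dilution series were fitted with DSC-derived thermodynamic parameters.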

T1 sequence (P50282 108-708): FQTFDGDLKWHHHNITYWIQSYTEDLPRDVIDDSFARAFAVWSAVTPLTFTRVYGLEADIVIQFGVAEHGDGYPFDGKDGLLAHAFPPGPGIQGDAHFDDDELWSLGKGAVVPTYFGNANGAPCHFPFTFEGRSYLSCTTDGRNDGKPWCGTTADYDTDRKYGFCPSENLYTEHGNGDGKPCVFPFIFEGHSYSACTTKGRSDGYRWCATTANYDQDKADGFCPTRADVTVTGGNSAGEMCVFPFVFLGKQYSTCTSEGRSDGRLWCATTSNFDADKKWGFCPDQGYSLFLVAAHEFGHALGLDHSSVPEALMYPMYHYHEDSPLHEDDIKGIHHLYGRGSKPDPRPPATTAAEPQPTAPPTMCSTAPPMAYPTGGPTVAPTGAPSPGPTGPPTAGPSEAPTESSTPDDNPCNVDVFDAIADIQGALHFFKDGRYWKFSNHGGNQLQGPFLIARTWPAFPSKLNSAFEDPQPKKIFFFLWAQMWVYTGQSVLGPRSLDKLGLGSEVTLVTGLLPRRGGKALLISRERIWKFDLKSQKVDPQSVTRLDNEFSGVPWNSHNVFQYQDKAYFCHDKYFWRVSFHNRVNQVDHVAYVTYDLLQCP

Take `Cc1nc(C)c(-c2csc(Nc3cc(S(N)(=O)=O)ccc3OC(C)C)n2)s1` [Example 64, 3-(2′,4′-Dimethyl-[4,5′]bithiazolyl-2-ylamino)-4-isopropoxy-benzenesulfonamide.HBr]: at MMP9, the “abundance of proMMP9 in ankles” value is reported as “did not reduce the abundance of proMMP9”. The Kd in experiment [1] turned out to be 140 nM.

A word on the Kd: it is the equilibrium constant for the complex coming apart. Low readings indicate tighter binding, high ones weaker binding.

The record behind these values is patent US20120129842A1, “BISTHIAZOLE INHIBITORS OF PRO-MATRIX METALLOPROTEINASE ACTIVATION” (priority 2010, published 2012).
